PubChem BioAssay (NCI)
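Assay format: 96-well plates, 48-hour exposure. Here, GI50 denotes the concentration required for 50% inhibition of growth. The concentration for full growth arrest is given as TGI.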

Key:
Test in all cases: NCI tumour cell line growth inhibition, 48 h
786-0 renal = test system: 786-0 renal
CAKI-1 renal = test system: CAKI-1 renal
HS 578T breast = test system: HS 578T breast
MDA-N = test system: MDA-N
OVCAR-5 ovarian = test system: OVCAR-5 ovarian
SF-268 CNS = test system: SF-268 CNS
SN12C renal = test system: SN12C renal
SNB-75 CNS = test system: SNB-75 CNS
SR leukemia = test system: SR leukemia
SW-620 colon = test system: SW-620 colon
U251 CNS = test system: U251 CNS
SF-539 CNS = test system: SF-539 CNS

| SMILES | TGI (786-0 renal) [µM] | TGI (CAKI-1 renal) [µM] | TGI (HS 578T breast) [µM] | TGI (MDA-N) [µM] | TGI (OVCAR-5 ovarian) [µM] | TGI (SF-268 CNS) [µM] | TGI (SN12C renal) [µM] | TGI (SNB-75 CNS) [µM] | TGI (SR leukemia) [µM] | TGI (SW-620 colon) [µM] | TGI (U251 CNS) [µM] | TGI (SF-539 CNS) [µM] | GI50 (CAKI-1 renal) [µM] | GI50 (OVCAR-5 ovarian) [µM] | GI50 (SF-539 CNS) [µM] | GI50 (SW-620 colon) [µM] | GI50 (SR leukemia) [µM] | GI50 (U251 CNS) [µM] | GI50 (SN12C renal) [µM] |
| --- | --- | --- | --- | --- | --- | --- | --- | --- | --- | --- | --- | --- | --- | --- | --- | --- | --- | --- | --- |
| CC1(C)OC(=O)N(c2ccccc2)C12C=Cc1cc([N+](=O)[O-])cc([N+](=O)[O-])c1O2 (stereo not drawn) | > 100 | > 100 | > 100 | > 100 | > 100 | > 100 | > 100 | > 100 | > 100 | > 100 | > 100 | – | – | – | – | – | – | – | – |
| CN1C(=O)C2CCC(=O)N2c2cccnc21 (stereo not drawn) | > 100 | > 100 | > 100 | > 100 | – | > 100 | > 100 | – | > 100 | > 100 | > 100 | > 100 | – | – | – | – | – | – | – |
| CC(C)(C)OC(=O)NCCCCC1NC(=O)[C@@H]2Cc3c([nH]c4ccccc34)C(C3CCCCC3)N2C1=O (stereo partly drawn) | > 100 | > 100 | > 100 | > 100 | > 100 | > 100 | > 100 | – | 36.8 | > 100 | > 100 | – | – | – | – | – | – | – | – |
| CC(=O)O[C@@H]1[C@H](C(C)C)[C@@H](OC(C)=O)C/C(C)=C/CC[C@]2(C)O[C@@H]12 | > 100 | > 100 | > 100 | > 100 | > 100 | > 100 | > 100 | > 100 | – | > 100 | > 100 | – | – | – | – | – | – | – | – |
| O=C1c2ccccc2-c2c1c1ccccc1c(=O)n2CCNCCNCCNCCn1c2c(c3ccccc3c1=O)C(=O)c1ccccc1-2 | – | 4.19 | – | – | – | – | – | – | – | > 100 | – | 1.58 | 1.44 | 0.449 | 0.273 | 0.194 | – | – | – |
| COc1ccc(-c2c(C#N)c(-c3ccc(C)cc3)n(NS(=O)(=O)c3ccc(C)cc3)c(=O)c2C#N)cc1 | > 100 | > 100 | 75.1 | > 100 | > 100 | > 100 | > 100 | > 100 | – | > 100 | > 100 | > 100 | – | – | – | – | – | – | – |
| O=C1CC(NC(=O)C(F)(F)F)c2c(Br)sc(N3CCNCC3)c21 (stereo not drawn) | > 100 | > 100 | > 100 | > 100 | > 100 | > 100 | > 100 | > 100 | – | > 100 | > 100 | > 100 | – | – | – | – | – | – | – |
| C#CCNC(CS)C(=O)O (stereo not drawn) | > 100 | > 100 | > 100 | – | > 100 | > 100 | – | > 100 | > 100 | > 100 | > 100 | – | – | – | – | – | – | – | – |
| CC1CCC(n2c3cnccc3c3cnc(Nc4ccc5c(n4)CCN(C(=O)CO)C5)nc32)CC1 (stereo not drawn) | – | > 100 | – | – | – | – | – | – | > 100 | > 100 | > 100 | – | 0.536 | – | – | 0.278 | 0.239 | 0.478 | – |
| COc1cc2nc3n(c(=O)c2cc1OC)-c1ccc([N+](=O)[O-])cc1C3=O | > 100 | 92.1 | > 100 | > 100 | > 100 | > 100 | > 100 | > 100 | – | 62.2 | > 100 | > 100 | – | – | – | – | – | – | – |
| COC(CCC[N+](C)(C)C)CC[N+](C)(C)C (stereo not drawn) | > 100 | > 100 | – | > 100 | > 100 | > 100 | > 100 | > 100 | > 100 | > 100 | > 100 | > 100 | – | – | – | – | – | – | – |
| Nc1nc(Cl)cc(NCC2(CO)CC(=O)C2)n1 | > 100 | > 100 | > 100 | – | > 100 | > 100 | > 100 | – | > 100 | > 100 | > 100 | > 100 | – | – | – | – | – | – | – |
| Cc1c(O)c(O)cc[n+]1C1OC(CO)C(O)C1O (stereo not drawn) | > 100 | > 100 | – | – | > 100 | > 100 | > 100 | > 100 | – | > 100 | > 100 | – | – | – | – | – | – | – | – |
| O=C1CCCc2cc3c(cc21)CC1(Cc2ccccc2C1)C3 | 29.6 | – | > 100 | – | > 100 | – | 41 | 3 | – | – | 64 | 18.7 | – | – | – | – | – | – | – |
| c1csc(-c2ccc(-c3cccc4nsnc34)s2)c1 | > 100 | > 100 | – | > 100 | > 100 | > 100 | > 100 | > 100 | 52.2 | > 100 | > 100 | > 100 | – | – | – | – | – | – | – |
| O=C(NC(=O)c1ccccc1[N+](=O)[O-])Nc1ccc(Oc2ncc(Br)cn2)c(Cl)c1 | – | – | 0.0934 | < 0.0159 | 0.0522 | – | – | – | – | – | > 64.4 | 0.0524 | – | – | – | < 0.0187 | – | < 0.0185 | < 0.027 |
| C=C1C(=O)O[C@@H]2C(=O)[C@@H](C)CCC/C(C)=C/CC[C@@]3(C)O[C@@H]3C[C@@H]12 | 43.9 | 37.5 | – | > 100 | > 100 | – | > 100 | 56.8 | – | 43.4 | > 100 | 60.6 | – | – | – | – | – | – | – |
| N#Cc1c(-c2ccccc2)/c(=C\Nc2cccc(C(F)(F)F)c2)c(=O)n2c1nc1ccccc12 | > 100 | 14.2 | – | 91.4 | > 100 | > 100 | 50.5 | > 100 | – | > 100 | > 100 | 37.8 | – | – | – | – | – | – | – |
| COCO[C@@H]1C[C@H]2C(=O)Nc3ccccc3C(=O)N2C1 | > 100 | > 100 | > 100 | > 100 | > 100 | > 100 | > 100 | > 100 | – | > 100 | > 100 | > 100 | – | – | – | – | – | – | – |
| CC(C)CCS(=O)(=O)OCCCCOS(=O)(=O)CCC(C)C | > 100 | – | – | – | – | > 100 | > 100 | > 100 | > 100 | > 100 | > 100 | > 100 | – | – | – | – | – | – | – |
| O=C1/C(=C/c2ccccc2)N=C2Sc3c(nc[nH]c3=O)N12 | > 100 | > 100 | > 100 | – | > 100 | > 100 | > 100 | > 100 | 68 | > 100 | > 100 | > 100 | – | – | – | – | – | – | – |
| COc1cc(C(=O)N(C(=S)OCc2ccccn2)c2ccccc2)cc(OC)c1OC | > 100 | > 100 | > 100 | > 100 | > 100 | > 100 | > 100 | – | 49 | > 100 | > 100 | 81 | – | – | – | – | – | – | – |
